The values below come from patent publication US9624167B2, “N-(4-hydroxy-4-methyl-cyclohexyl)-4-phenyl-benzenesulfonamides and N-(4-hydroxy-4-methyl-cyclohexyl)-4-(2-pyridyl)benzenesulfonamides and their therapeutic use” (PIMCO 2664 LIMITED, priority 2013, dated 2017).

Structures are written as SMILES. Where two headings read alike, the source gives them in different places.

For series [1], the system named is TK6 human lymphoblastoid cell line. Description: GreenScreen HC cytotoxicity (propidium iodide uptake). The settings on record: for Cytotoxicity, LEC, 48 h, −S9: absence of S9 fraction; for Cytotoxicity, LEC, 48 h, +S9: presence of S9 fraction; for Cytotoxicity, LEC, 24 h: lowest effective concentration for loss of cell viability. The format is cell-based. As to the method:
GreenScreen HC is a mammalian cell-based assay for measuring the genotoxicity and cytotoxicity of chemical compounds and mixtures.
Cytotoxicity is measured in the GreenScreen assay alongside genotoxicity and the results of the cytotoxicity assessment are used to normalise the genotoxicity measurements as described above.
In the GreenScreen HC assay, cell viability is assessed using a propidium iodide uptake assay. Propidium iodide is an intercalating agent and a fluorescent molecule that can be used to stain cells. It is commonly used to quantitatively assess DNA content to evaluate cell viability or DNA content in cell cycle analysis and can be used to differentiate necrotic, apoptotic and normal cells (see, e.g., Dengler et al., 1995, Anticancer Drugs, Vol. 6, No. 4, pp. 522-532). Exposure to a cytotoxic compound increases the uptake of propidium iodide, which is monitored by optical absorbance and is proportional to […]. Cytotoxic compounds are those that show an observed decrease in relative population survival below a significance threshold set at 90% compared to vehicle-treated control, at one or more test concentrations.
A dilution series of each test compound is generated in parallel in a 96-well, black microplate with an optically clear base. A standard genotoxic compound (methyl methanesulfonate, MMS) is added as an intra-plate quality control check. The plates are analysed at 24 hour and 48 hour time points using a microplate reader, which provides measurements of light absorbance and fluorescence for cells and solutions in the microplates wells.
In addition to measurements of cell viability and genotoxicity described above, the GreenScreen assay incorporates an assessment of the effects of metabolic activation in the assay, the “GreenScreen HC S9 assay”. To accomplish this, the cells are incubated both in the presence of and absence of the post-mitochondrial supernatant liver extract (known as “S9”). S9 is routinely used in genetic toxicology to supplement the test cells with mammalian phase I metabolism. To assess metabolic activation, compounds are incubated with the TK6 strain in the presence of 1% v/v S9 fraction mix for 3 hours with a subsequent 45 hour recovery time. After the recovery period, the GFP fluorescence signal and cell viability (assessed by propidium iodide uptake) are measured using a flow cytometer. Cyclophosphamide, a commonly used control in genotoxicity studies utilising metabolic activation, is used as the positive control in the assay. In the GreenScreen HC S9 assay, genotoxicity is evaluated by induction in GFP expression quantified using the mean sample fluorescence and cytotoxicity using the propidium iodide uptake assay described above. The statistically defined threshold for a positive genotoxicity result is 1.3, i.e. 30% induction over and above the baseline for the vehicle-treated control and the result is reported as positive or negative. Cytotoxic compounds are those that show an observed decrease in relative population survival below a significance threshold set at 90% compared to vehicle-treated control, at one or more test concentrations.
Stably transfected reporter cell lines were derived from the p53-competent human lymphoblastoid TK6 cell line. The reporter cell line carries an episomally replicating plasmid bearing the upstream promoter region and other regulatory sequences of the human GADD45a gene linked to a human optimised Green Fluorescent Protein (GFP) gene. The control cell line carries an identical plasmid except for the removal of 4 base pairs at the start of the EGFP gene, such that GFP is not produced. Both plasmids also carry a gene conferring resistance to hygromycin B to the cell line, allowing continued selection for plasmid presence (200 μg/mL hygromycin B; Invitrogen Corporation, Carlsbad, Calif.). […]

Series [2] concerns IL-6 release from LPS-stimulated Thp1 macrophages. In words: Thp1 Macrophage IL-6 Release Assay. The format is cell-based. As to conditions: Homo sapiens. An excerpt:
Anti-inflammatory effects were further characterised by assessing the production of interleukin-6 (IL-6) by human Thp-1 derived macrophages stimulated with a pro-inflammatory stimulus bacterial lipopolysaccharide (LPS). LPS acts with a cell-surface receptor, Toll-like receptor-4 to activate the NFκB and IRF signalling pathways to produce IL-6. The reduction of IL—in this stimulated assay is indicative of anti-inflammatory effects with utility in the treatment of conditions in which IL-6 production is aberrant.
In vitro potency of test compounds in human cells was determined by incubation with Thp1 macrophages and subsequent stimulation with an inflammatory stimulus (bacterial lipopolysaccharide (LPS)) followed by measurement of cellular interleukin-6 (IL-6) release.
Thp1 cells were plated at a concentration of 1×10^5 cells/well or 1.7×10^5 cells/well in 500 μL or 150 μL RPMI complete media containing 1% penicillin-streptomycin and 10% heat inactivated foetal bovine serum in 24-well plates or 96-well plates, respectively and allowed to adhere overnight. The following day, the cells were stimulated with phorbol myristic acid (PMA) at a final concentration of 100 nM (24-well plates) or 200 nM (96-well plates) to induce differentiation and maintained for up to 8 days with a medium change at 5 days if cells were cultured to 8 days. Test compounds were prepared as […] solutions in DMSO and then serially diluted in DMSO prior to dilution in culture medium.
The diluted compounds were added to the cultures 1 hour prior to stimulation with 100 ng/mL LPS. Following a 16 or 18 hour incubation at 37° C./5% CO2, the cell culture medium was collected and assayed for human IL-6 levels using the human IL-6 duo-set ELISA kit (R&D Systems). The average results for each test compound (n=3) were expressed as a percent (%) of the average control value. The average values across the concentrations tested were then plotted and the IC50 for the inhibition of IL-6 was calculated by fitting the data to a 4-parameter IC50 equation using software from Grafit version 6.0.12 (Erithacus Software Ltd., by Dr Robin Leatherbarrow) or GraphPad Prism version 5.04 for Windows (GraphPad Software, La Jolla, Calif., USA, www.qraphpad.com). Each experiment was repeated twice and the data are presented as the mean IC50 from both experiments.

Setting [3] is: THP-1, 1 × 10^5 cells/well, 24-well plates, 8 days, 6 point curve, IL6 measured 16 hours after LPS, read-out: IC50 (1).
Where [4] appears, read: THP-1, 1.7 × 10^5 cells/well, 96-well plates, 3 days, 9 point curve, IL6 measured 18 hours after LPS, read-out: IC50 (2).

With `C[C@]1(O)CC[C@H](NS(=O)(=O)c2ccc(-c3ccc(F)cc3C(F)(F)F)cc2)CC1` [HMC-C-02-A, 4′-Fluoro-N-((1r,4r)-4-hydroxy-4-methylcyclohexyl)-2′-(trifluoromethyl)biphenyl-4-sulfonamide], in series [1], the “Cytotoxicity, LEC, 48 h, −S9” value stood at 60 µM; the “Cytotoxicity, LEC, 48 h, +S9” value came out at 120 µM; the “Cytotoxicity, LEC, 24 h” value was over 1000 µM. Besides, in series [2] (setting [3]), the IC50 (in general, the concentration that inhibits the measured activity by half) is 1 nM. Also, in series [2] (setting [4]), the IC50 turned out to be 970 nM.

Regarding `C[C@]1(O)CC[C@H](NS(=O)(=O)c2ccc(-c3c(F)cc(F)cc3F)cc2)CC1` [HMC-C-03-A, 2′,4′,6′-Trifluoro-N-((1r,4r)-4-hydroxy-4-methylcyclohexyl)biphenyl-4-sulfonamide], in series [1], the “Cytotoxicity, LEC, 48 h, −S9” value came to 0.06 µM; the “Cytotoxicity, LEC, 48 h, +S9” value turned out to be 15 µM; the “Cytotoxicity, LEC, 24 h” value was 0.24 µM. The IC50 in series [2] (setting [3]) amounted to 4 nM. In series [2] (setting [4]), the IC50 was 50 nM.

Turning to `C[C@]1(O)CC[C@@H](NS(=O)(=O)c2ccc(-c3c(F)cc(F)cc3F)cc2)CC1` [HMC-C-03-B, 2′,4′,6′-Trifluoro-N-((1s,4s)-4-hydroxy-4-methylcyclohexyl)-[1,1′-biphenyl]-4-sulfonamide], in series [1], the “Cytotoxicity, LEC, 48 h, −S9” value came to 0.08 µM; the “Cytotoxicity, LEC, 48 h, +S9” value came to 10.8 µM; the “Cytotoxicity, LEC, 24 h” value worked out at 0.17 µM. Also, in series [2] (setting [4]), the IC50 stood at 20 nM.

For the compound `C[C@]1(O)CC[C@H](NS(=O)(=O)c2ccc(-c3ncc(F)cc3F)c(F)c2)CC1` [HMC-N-01-A, 4-(3,5-Difluoropyridin-2-yl)-3-fluoro-N-((1r,4r)-4-hydroxy-4-methylcyclohexyl)benzenesulfonamide], in series [1], the “Cytotoxicity, LEC, 48 h, −S9” value is 0.12 µM; the “Cytotoxicity, LEC, 48 h, +S9” value was found to be 60 µM; the “Cytotoxicity, LEC, 24 h” value worked out at 0.94 µM. Moreover, in series [2] (setting [3]), the IC50 stood at 130 nM. The IC50 in series [2] (setting [4]) amounted to 280 nM.

Take `C[C@]1(O)CC[C@@H](NS(=O)(=O)c2ccc(-c3ncc(F)cc3F)c(F)c2)CC1` [HMC-N-01-B, 4-(3,5-Difluoropyridin-2-yl)-3-fluoro-N-((1s,4s)-4-hydroxy-4-methylcyclohexyl)benzenesulfonamide]: in series [1], the “Cytotoxicity, LEC, 48 h, −S9” value is 0.05 µM; the “Cytotoxicity, LEC, 48 h, +S9” value came out at 5.85 µM; the “Cytotoxicity, LEC, 24 h” value turned out to be 0.01 µM. Also, the IC50 in series [2] (setting [4]) is 30 nM.

As for `C[C@]1(O)CC[C@H](NS(=O)(=O)c2ccc(-c3ncc(F)cc3F)cc2)CC1` [HMC-N-02-A, 4-(3,5-Difluoropyridin-2-yl)-N-((1r,4r)-4-hydroxy-4-methylcyclohexyl)benzenesulfonamide], in series [1], the “Cytotoxicity, LEC, 48 h, −S9” value turned out to be 0.47 µM; the “Cytotoxicity, LEC, 48 h, +S9” value was determined as 120 µM; the “Cytotoxicity, LEC, 24 h” value was 0.94 µM. For the same compound, the IC50 in series [2] (setting [3]) is 150 nM. In series [2] (setting [4]), the IC50 worked out at 290 nM.

With `C[C@]1(O)CC[C@@H](NS(=O)(=O)c2ccc(-c3ncc(F)cc3F)cc2)CC1` [HMC-N-02-B, 4-(3,5-Difluoropyridin-2-yl)-N-((1s,4s)-4-hydroxy-4-methylcyclohexyl)benzenesulfonamide], in series [1], the “Cytotoxicity, LEC, 48 h, −S9” value came to 0.01 µM; the “Cytotoxicity, LEC, 48 h, +S9” value was found to be 10.2 µM; the “Cytotoxicity, LEC, 24 h” value was found to be 0.04 µM. Further, the IC50 in series [2] (setting [4]) is 20 nM.

With `C[C@]1(O)CC[C@H](NS(=O)(=O)c2ccc(-c3ncc(Cl)cc3Cl)cc2)CC1` [HMC-N-03-A, 4-(3,5-Dichloropyridin-2-yl)-N-((1r,4r)-4-hydroxy-4-methylcyclohexyl)benzenesulfonamide], in series [1], the “Cytotoxicity, LEC, 48 h, −S9” value stood at 0.24 µM; the “Cytotoxicity, LEC, 48 h, +S9” value stood at 30 µM; the “Cytotoxicity, LEC, 24 h” value is 0.94 µM. For the same compound, the IC50 in series [2] (setting [3]) stood at 50 nM.
